According to patent US10609906B2, “Apparatus and method of using a simulated skin substrate for testing insect repellants” (S. C. JOHNSON & SON, INC., priority 2016, dated 2020):

What was measured:
adult female mosquitoes = assay: human surrogate apparatus 100 (Vitro-Skin skin substitute substrate), laboratory, complete protection time; format: in vivo, Aedes aegypti; details: for CPT data with human surrogate apparatus 100 compared with arm-in-cage group: 10% by weight, laboratory; for Predicted percent DEET concentration (±SE): inverse prediction from model
Description: With reference to FIG. 4, a method of using the human surrogate apparatus 100 is explained.
In certain embodiments, different test substances contain different concentrations of testing insect repellent. The concentration of testing insect repellent can be measured by weight percentage or by volume percentage of the testing insect repellent diluted in ethanol or in any other suitable diluents. […] Further, in the present embodiment, regardless of the concentration of the repellent, the combined mass of the repellent and ethanol is about 0.19 g. In other experiments, the combined mass of the repellent(s) and the diluent(s) is greater or less than about 0.19 g, but similarly stays the same independent of the concentration of the repellent. With different sets of experiments, the amount of skin-applied test substance used in the testing is based on the size of the substrate and the properties of different testing insect repellents, such as the active ingredient dosage.
This cycle of exposure-withdrawal-exposure is repeated until one or more biting insects land on the treated substrate for equal to or longer than 2 seconds.

wild mosquitoes = assay: portable human surrogate apparatus 200, outdoor field test, complete protection time; format: in vivo; details: for CPT data with human surrogate apparatus 200 compared with voluntary human subjects group: outdoor field test
Procedure: The human surrogate apparatus of FIG. 1 is intended for use in a laboratory or controlled environment. Preferably, the controlled environment has a temperature range of between about 24° C. to about 30° C. and a range of relative humidity of between about 40% to about 60%. In contrast, FIGS. 2 and 3 illustrate an embodiment of a human surrogate apparatus 200 for testing the efficacy of a skin-applied insect repellent in the field. By fashioning the human surrogate apparatus 200 to be portable, the apparatus may be used in any number of real world environments. The human surrogate apparatus 200 therefore provides the advantage of similar testing efficacy as human testing, but without exposure to mosquitoes or other insects found in the field.
With reference still to FIGS. 2 and 3, the human surrogate apparatus 200 is disposed in an outdoor environment, with an identified population of biting insects. The portable human surrogate apparatus 200 is provided with a housing 202 having a power supply line 204 connected thereto. In some embodiments, a power supply 206 is located remotely from the housing 202 to provide power to the human surrogate apparatus 200. Alternatively, or in addition, a local power supply is provided within or attached to the housing 202. In such an embodiment, the power supply line 204 may be omitted, provided within the housing 202, or otherwise fashioned differently within the housing 202 to allow energy to reach electrical components thereof
With reference to FIG. 3, the human surrogate apparatus 200 includes a heater 208 in electrical communication with the power supply 206. In the present embodiment, the heater 208 is a silicone-rubber heating blanket, manufactured by BriskHeat Corporation, Columbus, OH. A non-collagen based, non-biological substrate 210 is also provided and is exposed to the ambient environment. In certain embodiments the non-collagen based, non-biological substrate 210 may be synthetic.
In the present embodiment, the substrate 210 is securely fastened to the portable human surrogate apparatus 200 by magnetic strips 212, or may be fastened by any other suitable means. In some embodiments a temperature buffering device 214 is provided beneath the substrate 210, which assists in transmitting heat from the heater 208 and maintains the substrate 210 at a predetermined temperature. In the present embodiment, the temperature buffering device 214 is a water bath, enclosed in a container 220, which is made of materials that prevent water leakage and that transmit heat at the same time. Moreover, the portable human surrogate apparatus 200 is connected to a CO2 source 216, which may be remote from the housing 202, attached to the housing 202, or otherwise retained within the housing 202. In the present embodiment, the CO2 source 216 delivers CO2 at a rate of between about 400 mL/min (14 oz/min) to about 600 mL/min (20.3 oz/min).
It has also been experimentally determined that the human surrogate apparatuses described herein perform consistently in a controlled environment, e.g., a laboratory with predetermined and controllable conditions, and in an uncontrolled environment, e.g., in an outdoor field test. With reference to FIG. 8 and Table 3, the CPT in hours obtained from testing 7% weight percentage DEET repellent efficacy in the laboratory and obtained from the field is similar.
Similarly, for testing substance picaridin (referring to FIGS. 11A-11C) and PMD (referring to FIGS. 12A-12C), the CPT data (including average CPT) in the human surrogate apparatus 200 group shares overlapping confidence intervals with the CPT data in the field test group using the voluntary human subjects.

[1] = surface wetting of insect repellent actives on hydrated skin substitute substrate; format: physicochemical; details: for surface wetting on skin substitute substrate: ethanol solutions containing 5%, 10%, 15%, and 25% of the active; for surface wetting on hydrated skin substitute substrate: insect repellant active as such
Description: Additionally, the surface wetting of insect repellents on the skin substitute substrate should be close to the surface wetting of insect repellents on human skin. The term “wetting” refers to the ease with which a substance can intimately contact and spread over a given substrate. There are a variety of forces (ionic, static, polar, van der Waals etc.) acting between the substance and the substrates that ensure good bonding. Good wetting provides a larger area of contact where these forces may act. Consequently, good wetting is crucial for good bond formation. […] Complete wetting is achieved when the contact angle between the liquid and the solid surface is approaching or is substantially zero. […] The interaction of ethanol solutions containing 5%, 10%, 15%, and 25% of each aforementioned active substance and the tested skin substitute substrate was also tested. […] Due to this degree of wetting between the insect repellent active and the tested skin substitute substrate, the desired bonding between the active and the tested skin substitute substrate is achieved. As a result, the insect repellent remains on the skin substitute substrate for a duration similar to that of human skin.

mosquitoes [2] = assay: arm-in-cage method with human research participants, laboratory, complete protection time; format: in vivo
Description: When comparing the CPT data of skin-applied insect repellents, such as DEET, using the human surrogate apparatus 100 to the CPT data of skin-applied insect repellents obtained using human research participants via the arm-in-cage method (See Product Performance Test Guidelines OPPTS 810.3700: Insect Repellents to be Applied to Human Skin, United States Environmental Protection Agency, EPA 712-10-001, Jul. 7, 2010), data from both groups is very similar to each other as may be seen with reference to FIG. 5 in a controlled environment, e.g., a laboratory. Further, Table 1 illustrates the average CPT for the two methods based on differing weight percentages of the active ingredient DEET of the insect repellent, as well as the […] (“±SE”) at each weight percentage for the two groups. As may be seen, the differences between the experiments using human research participants via the arm-in-cage method and the experiments using the human surrogate apparatus 100 are statistically negligible.

mosquitoes [3] = assay: as above; format: in vivo; details: inverse prediction from model
[4] = 7% DEET in EtOH, Lab, human surrogate apparatus
[5] = 7% DEET in ethanol, Human Skin Surrogate
[6] = 15% DEET in ethanol, Human Skin Surrogate
[7] = 20% DEET in ethanol, Human Skin Surrogate
[8] = 25% DEET in ethanol, Human Skin Surrogate
[9] = 30% DEET in ethanol, Human Skin Surrogate
[10] = 7% DEET in EtOH, Field, human surrogate apparatus

## CCC(C)OC(=O)N1CCCCC1CCO (stereo not shown) [picaridin, 2-(2-hydroxyethyl)-1-piperidinecarboxylic acid 1-methylpropyl ester]
Adult female mosquitoes
  CPT data with human surrogate apparatus 100 compared with arm-in-cage group: within the range of CPT data points of the group employing the arm-in-cage method
Wild mosquitoes
  CPT data with human surrogate apparatus 200 compared with voluntary human subjects group: No statistically significant difference
[1]
  surface wetting on skin substitute substrate: substantially complete wetting
  surface wetting on hydrated skin substitute substrate: substantially complete wetting

## CCN(CC)C(=O)c1cccc(C)c1 [DEET, N,N-Diethyl-3-methylbenzamide]
Mosquitoes [2]; 7% DEET in ethanol
  Complete protection time (median): 2.3 h
  Complete protection time Mean ± SE: 2.5 ± 0.7 h
Mosquitoes [2]; 15% DEET in ethanol
  Complete protection time (median): 3.5 h
  Complete protection time Mean ± SE: 3.9 ± 1.5 h
Mosquitoes [2]; 20% DEET in ethanol
  Complete protection time (median): 3.8 h
  Complete protection time Mean ± SE: 4.9 ± 2.1 h
Mosquitoes [2]; 25% DEET in ethanol
  Complete protection time (median): 6.8 h
  Complete protection time Mean ± SE: 6.5 ± 1.4 h
Mosquitoes [2]; 30% DEET in ethanol
  Complete protection time (median): 6.6 h
  Complete protection time Mean ± SE: 6.6 ± 0.7 h
Adult female mosquitoes; [4]
  Complete protection time (median): 2.0 h
  Complete protection time Mean ± SE: 2.2 ± 0.9 h
  Complete protection time Range: 1.0 to 3.5 h
Adult female mosquitoes; [5]
  Complete protection time (median): 2.0 h
  Complete protection time Mean ± SE: 2.2 ± 0.9 h
Adult female mosquitoes; [6]
  Complete protection time (median): 3.3 h
  Complete protection time Mean ± SE: 3.6 ± 1.0 h
Adult female mosquitoes; [7]
  Complete protection time (median): 5.3 h
  Complete protection time Mean ± SE: 4.9 ± 2.1 h
Adult female mosquitoes; [8]
  Complete protection time (median): 6.5 h
  Complete protection time Mean ± SE: 6.3 ± 1.1 h
Adult female mosquitoes; [9]
  Complete protection time (median): 7.0 h
  Complete protection time Mean ± SE: 6.5 ± 2.3 h
Adult female mosquitoes; for complete protection time 1 h, Human Skin Surrogate
  Predicted percent DEET concentration (±SE): 3.81 ± 1.72%
Adult female mosquitoes; for complete protection time 2 h, Human Skin Surrogate
  Predicted percent DEET concentration (±SE): 8.17 ± 1.16%
Adult female mosquitoes; for complete protection time 3 h, Human Skin Surrogate
  Predicted percent DEET concentration (±SE): 11.92 ± 1.04%
Adult female mosquitoes; for complete protection time 4 h, Human Skin Surrogate
  Predicted percent DEET concentration (±SE): 15.71 ± 1.13%
Adult female mosquitoes; for complete protection time 5 h, Human Skin Surrogate
  Predicted percent DEET concentration (±SE): 20.00 ± 1.21%
Adult female mosquitoes; for complete protection time 6 h, Human Skin Surrogate
  Predicted percent DEET concentration (±SE): 25.55 ± 1.58%
Wild mosquitoes; [10]
  Complete protection time (median): 2.0 h
  Complete protection time Mean ± SE: 2.0 ± 0.4 h
  Complete protection time Range: 1.5 to 2.5 h
Wild mosquitoes
  CPT data with human surrogate apparatus 200 compared with voluntary human subjects group: not significantly different
[1]
  surface wetting on skin substitute substrate: substantially complete wetting
  surface wetting on hydrated skin substitute substrate: substantially complete wetting
Mosquitoes [3]; for complete protection time 1 h
  Predicted percent DEET concentration (±SE): 1.61 ± 1.69%
Mosquitoes [3]; for complete protection time 2 h
  Predicted percent DEET concentration (±SE): 6.15 ± 0.94%
Mosquitoes [3]; for complete protection time 3 h
  Predicted percent DEET concentration (±SE): 10.07 ± 0.88%
Mosquitoes [3]; for complete protection time 4 h
  Predicted percent DEET concentration (±SE): 14.08 ± 1.15%
Mosquitoes [3]; for complete protection time 5 h
  Predicted percent DEET concentration (±SE): 18.70 ± 1.46%
Mosquitoes [3]; for complete protection time 6 h
  Predicted percent DEET concentration (±SE): 24.85 ± 2.64%

## CC1CCC(C(C)(C)O)C(O)C1 (stereo not shown) [PMD, para-menthane-3,8-diol]
Adult female mosquitoes
  CPT data with human surrogate apparatus 100 compared with arm-in-cage group: not significantly different
Wild mosquitoes
  CPT data with human surrogate apparatus 200 compared with voluntary human subjects group: No statistically significant difference
[1]
  surface wetting on skin substitute substrate: substantially complete wetting
  surface wetting on hydrated skin substitute substrate: substantially complete wetting
